Series [1] addresses Poly [ADP-ribose] polymerase 1 (Homo sapiens, UniProt P09874). Nature of the series: Inhibition of PARP1 (unknown origin).
A short description of series [2]: Aqueous solubility of compound. Format: physicochemical.
Series [3] is described as follows: Oral bioavailability in Sprague-Dawley rat at 4 mg/kg administered as single dose measured for 24 hrs by HPLC/tandem mass spectrometry. Format: ADME, organism-based. Particulars: in vivo.

By IC50 is commonly meant the concentration that inhibits the measured activity by half. A word on the Ki: it is a dissociation constant, usually derived from enzyme kinetics or from competition with a known ligand. A high value points to a looser hold on the target. One may read the solubility as the concentration that dissolves in the medium under given conditions. Low values mean a poorly soluble substance, high ones a readily soluble substance. As usually defined, the bioavailability is the share of a dose that reaches the circulation, judged against a reference dose that is usually intravenous. Higher therefore signals much systemic uptake.

Each structure is given as a SMILES string.

Sequence of Poly [ADP-ribose] polymerase 1 (P09874 whole entry): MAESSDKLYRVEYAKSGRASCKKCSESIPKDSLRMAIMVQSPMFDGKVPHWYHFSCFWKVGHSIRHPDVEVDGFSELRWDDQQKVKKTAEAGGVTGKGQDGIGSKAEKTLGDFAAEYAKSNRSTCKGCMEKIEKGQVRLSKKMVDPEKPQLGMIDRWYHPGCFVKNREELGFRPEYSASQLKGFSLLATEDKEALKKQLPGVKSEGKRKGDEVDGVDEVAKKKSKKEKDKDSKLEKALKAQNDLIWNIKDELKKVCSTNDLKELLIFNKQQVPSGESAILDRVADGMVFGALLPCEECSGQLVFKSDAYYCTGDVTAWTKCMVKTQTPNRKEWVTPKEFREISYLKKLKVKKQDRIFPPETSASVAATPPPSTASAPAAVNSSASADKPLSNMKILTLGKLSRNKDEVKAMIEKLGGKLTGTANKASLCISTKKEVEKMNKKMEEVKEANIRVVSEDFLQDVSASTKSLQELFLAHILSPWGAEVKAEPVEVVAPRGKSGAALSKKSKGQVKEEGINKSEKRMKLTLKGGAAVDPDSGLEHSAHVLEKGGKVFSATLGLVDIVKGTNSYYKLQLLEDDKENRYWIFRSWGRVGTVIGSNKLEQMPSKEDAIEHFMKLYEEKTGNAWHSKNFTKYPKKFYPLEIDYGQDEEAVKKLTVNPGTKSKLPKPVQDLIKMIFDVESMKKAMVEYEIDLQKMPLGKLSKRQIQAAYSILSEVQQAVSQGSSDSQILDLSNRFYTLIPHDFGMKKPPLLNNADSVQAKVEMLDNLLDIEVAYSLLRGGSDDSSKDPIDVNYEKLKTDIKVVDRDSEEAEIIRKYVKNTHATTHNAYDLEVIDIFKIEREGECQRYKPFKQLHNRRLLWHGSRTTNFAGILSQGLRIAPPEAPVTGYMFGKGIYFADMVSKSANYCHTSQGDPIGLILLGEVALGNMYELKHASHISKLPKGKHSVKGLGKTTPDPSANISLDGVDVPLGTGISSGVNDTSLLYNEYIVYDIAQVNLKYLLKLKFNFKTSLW

`COc1cccc(C(N)=O)c1` gave an IC50 in series [1] of 30000 nM. On the same count and under the same terms, under `Cc1cccc2c1CCNC2=O` stands 150 nM; under `O=C1NCCc2c(OCCCCN3CCCCC3)cccc21`, 150 nM. The compound `O=C1CCC(=O)N1c1cc(Cc2n[nH]c(=O)c3ccccc23)ccc1F` displayed a Ki in series [1] of 12 nM.

With `CNCc1ccc(-c2cc3cc(F)cc(C(N)=O)c3o2)cc1.Cl`, in series [2], the solubility is greater than 35 mg/mL. In turn, `O=C(c1cc(Cc2n[nH]c(=O)c3ccccc23)ccc1F)N1CCn2nc(C(F)(F)F)nc2C1` [FLUZOPARIB] displayed a bioavailability in series [3] of 35.8%.

These data come from ChEMBL document CHEMBL5230098, “The ups and downs of Poly(ADP-ribose) Polymerase-1 inhibitors in cancer therapy-Current progress and future direction” (Eur J Med Chem, 2020).
